Results reported in patent publication US11273170B2, “Methods of treating cancer” (Ascend Biopharmaceuticals Ltd, priority 2016, dated 2022).
“Also recorded” adds a separate entry of the source.

B1: purified IFN gamma: purified interferon gamma, cytokine (protein, UniProt P01579 24-161, looked up)
Interferon gamma: QDPYVKEAENLKKYFNAGHSDVADNGTLFLGILKNWKEESDRKIMQSQIVSFYFKLFKNFKDDQSIQKSVETIKEDMNVKFFNSNKKKRDDFEKLTNYSVTDLNVQRKAIHELIQVMAELSPAAKTGKRKRSQMLFRG

Experiments:
Assay type in all cases: cell-based
[1] = test system: HeLa-RIP3^− or HeLa-RIP3^+ cells; test: Dose response for chemotherapeutic agents, cell viability by trypan blue exclusion; conditions: 48 hour exposure; for EC50: read-out: ED50 at 48 hours (cell death)
Description: HeLa-RIP3^− or HeLa-RIP3^+ cells (250,000/well) were seeded in six-well plates in complete DMEM medium, and after 24 hours, cells were treated with multiple doses of Fluorouracil. Cell viability was determined 48 hours post treatment via trypan blue exclusion analysis.
HeLa-RIP3^− or HeLa-RIP3^+ cells (250,000/well) were seeded in six-well plates in complete DMEM medium, and after 24 hours, cells were treated with multiple doses of the Trabectedin, Birinapant, or Cisplatin. Cell viability was determined 48 hours post treatment via trypan blue exclusion analysis.

HeLa-RIP3^− cells = conditions: Birinapant 5 μM or 30 μM, 48 hours
Description: (§1) HeLa-RIP3^− cells (250,000/well) cells were plated in six-well plates 24 hours prior to infection. ASN-002 infections were performed in serum-free medium at multiplicities of infection (MOI) of 10. Two doses of Fluorouracil were co-administered with viruses, and cell death kinetics was analyzed over the period of 3 days.
as §1, with “chemotherapeutic agents” for “Fluorouracil”

HeLa-RIP3^+ cells = test: Induction of cell death by TNF alpha in the presence of cycloheximide and pan caspase inhibitor zVAD, trypan blue exclusion; conditions: TNF alpha 50 ng/ml in the presence of cycloheximide (250 ng/ml) plus zVAD (50 μM); relative to untreated cells
Description: HeLa-RIP3 cells (250,000/well) were plated in six-well plates 24 hours prior to treatment with TNF alpha and cycloheximide (TCZ treatment). Cells were pre-treated with CHX (250 ng/ml) and the pan caspase inhibitor zVAD (50 μM) one hour before TNF alpha (50 ng/ml) treatment. Cell viability was determined after 12-15 hours by trypan blue exclusion analysis.

HeLa (RIP3^−) cells = test: Induction of cell death by TNF alpha, trypan blue exclusion; conditions: TNF alpha 50 ng/ml; under any condition; 12-15 hours
[2] = test system: HeLa (RIP3^+/necroptosis-competent) cells; test: Cell death in the presence of inhibitors of apoptosis and necroptosis; conditions: for cell death: no inhibitor, Trabectedin 2.5 nM (alone or plus AdCMV-NULL); for cell death in the presence of zVAD: pan caspase inhibitor zVAD 50 μM
Description: In order to understand which of several possible cell death pathways are activated by Fluorouracil or ASN-002 treatment alone and in combination, experiments were carried out with these agents in the presence of inhibitors of apoptosis and/or necroptosis in HeLa (RIP3^+/necroptosis-competent) cells.
(§2) In order to understand which of several possible cell death pathways are activated by Trabectedin treatment alone and in combination with IFN gamma (virus expressed or exogenously added), experiments were carried out with these agents, alone or in combination, in the presence of inhibitors of apoptosis and/or necroptosis inhibitors in both HeLa (RIP3^+/necroptosis-competent) cells and HeLa (RIP3^−/necroptosis-deficient) cells.

[3] = test system: RIP3^− (necroptosis-deficient) HeLa cells; test: Cell death in the presence of a pan caspase inhibitor of apoptosis; conditions: for cell death: no inhibitor, Trabectedin alone or plus AdCMV-NULL
Description: In follow-up experiments, RIP3^− (necroptosis-deficient) HeLa cells were subjected to the same treatments as described above.
as §2

[4] = Fluorouracil 10 μM, Trabectedin 2.5 nM

Molecule | EC50 [1] | cell death ([2]; Fluorouracil 10 μM) | cell death in the presence of zVAD [2, 4] | cell death [3] | cell death in the presence of zVAD relative to treatment without inhibitor [3] | further results
N.N.[Cl][Pt][Cl] [Cisplatin] |  |  |  |  |  | ED50 at 48 hours (cell death) [1]: ~10 mg/L
CC[C@H](NC(=O)[C@H](C)NC)C(=O)N1C[C@@H](O)C[C@H]1Cc1c(-c2[nH]c3cc(F)ccc3c2C[C@@H]2C[C@H](O)CN2C(=O)[C@H](CC)NC(=O)[C@H](C)NC)[nH]c2cc(F)ccc12 [Birinapant] | ~30 µM |  |  |  |  | cell death in combination with control adenovirus (Ad-CMV-NULL) relative to agent alone (HeLa-RIP3^− cells): same level of cell death as Birinapant alone; also recorded: indistinguishable from that induced by Birinapant alone
TNF alpha |  |  |  |  |  | cell death (HeLa-RIP3^+ cells): about 70%; induction of cell death (HeLa (RIP3^−) cells): failed to induce cell death
COc1cc2c(cc1O)CCN[C@]21CS[C@@H]2c3c(OC(C)=O)c(C)c4c(c3[C@H](COC1=O)N1[C@@H]2[C@H]2c3c(cc(C)c(OC)c3O)C[C@@H]([C@@H]1O)N2C)OCO4 [Trabectedin] | ~0.01 µM | approximately 35% | about 95% | 33% |  | cell death in the presence of NSA relative to treatment without inhibitor ([2]; NSA): slightly lower; cell death in the presence of both zVAD and NSA ([2]; zVAD plus NSA, Fluorouracil 10 μM, Trabectedin 2.5 nM): about 60%; cell death in the presence of zVAD ([3]; pan caspase inhibitor zVAD): 87%
O=c1[nH]cc(F)c(=O)[nH]1 [Fluorouracil] | ~50 µM | approximately 35% | about 80% |  | slightly lower | cell death in the presence of Necrosulfonamide (NSA) ([2]; necroptosis inhibitor NSA 1 μM, Fluorouracil 10 μM): 45%
B1 |  | ~30% |  | ~30% | marked, though not complete, rescue of cell death | cell death in the presence of zVAD relative to treatment without inhibitor ([3]; listed as IFN gamma): significantly reduced cell death
